Results taken from patent publication US6780891B2, “Tramadol analogs and uses thereof” (Sepracor Inc., priority 2001, dated 2004).
“And” between values parts separate entries of the source, which are not always exact repeats. Equal entries are not always repeated. Structures can show the parent of a compound that is named as a salt. Where two headings read alike, the source gives them in different places.

Assays:
5-HT uptake = test: Functional monoamine uptake: 5-HT uptake, rat brain synaptosomes; assay type: biochemical; conditions: for IC50: rat brain synaptosomes, [3H]5-HT, 15 min./37° C.; for Blocking 5-HT uptake compared with racemic tramadol and ODMT: comparison in words of Table 1 values
μ receptor [1] = target: T1, μ receptor (Rattus norvegicus, UniProt P33535); test: biochemical; conditions: IC50, opioid binding, rat cerebral cortex, [3H]DAMGO 1 nM, 60 minutes/22° C.
κ receptor = target: T2, κ receptor (Cavia porcellus, UniProt P41144); test: κ opioid receptor binding, [3H]U 69593; conditions: guinea-pig cerebellum, [3H]U 69593 0.7 nM, 80 minutes/22° C.
T2 construct: Following incubation, the membranes were rapidly filtered under vacuum through glass fiber filters; from tissue

μ receptor [2] = target: T1, μ receptor; conditions: for Affinity for the μ receptor compared with ODMT and racemic tramadol: comparison in words of Table 1 values
NE uptake = assay type: biochemical, Rat; conditions: for IC50: read-out: IC50, functional monoamine uptake, NE
δ receptor = target: T3, δ receptor (Cavia porcellus, UniProt A0A286XTF2); test: δ opioid receptor binding, [3H]DPDPE; parameters: species or system Guinea-pig
T3 construct: Following incubation, the membranes were rapidly filtered under vacuum through glass fiber filters; from tissue

DA uptake = test: Functional monoamine uptake: DA uptake, rat corpora striatum synaptosomes; assay type: biochemical; conditions: [3H]DA, 15 min./37° C.
Protocol: Radioactivity was determined with a scintillation counter (Topcount, Packard) using a liquid scintillation cocktail (Microscint 0, Packard).
These parameters were obtained by Hill equation curve fitting.

[3] = rat hypothalamus, [3H]NE, 20 min./37° C.

T3 sequence (A0A286XTF2 1-366): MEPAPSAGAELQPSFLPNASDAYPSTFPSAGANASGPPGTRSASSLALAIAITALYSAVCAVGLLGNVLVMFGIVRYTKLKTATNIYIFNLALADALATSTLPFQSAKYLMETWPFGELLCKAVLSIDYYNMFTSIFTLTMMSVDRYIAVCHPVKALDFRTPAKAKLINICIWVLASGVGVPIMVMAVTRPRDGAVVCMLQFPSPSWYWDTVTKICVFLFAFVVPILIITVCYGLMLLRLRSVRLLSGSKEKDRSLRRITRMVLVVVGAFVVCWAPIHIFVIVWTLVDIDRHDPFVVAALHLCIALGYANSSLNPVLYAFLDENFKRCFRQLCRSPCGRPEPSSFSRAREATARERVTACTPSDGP
T1 sequence (P33535 whole entry): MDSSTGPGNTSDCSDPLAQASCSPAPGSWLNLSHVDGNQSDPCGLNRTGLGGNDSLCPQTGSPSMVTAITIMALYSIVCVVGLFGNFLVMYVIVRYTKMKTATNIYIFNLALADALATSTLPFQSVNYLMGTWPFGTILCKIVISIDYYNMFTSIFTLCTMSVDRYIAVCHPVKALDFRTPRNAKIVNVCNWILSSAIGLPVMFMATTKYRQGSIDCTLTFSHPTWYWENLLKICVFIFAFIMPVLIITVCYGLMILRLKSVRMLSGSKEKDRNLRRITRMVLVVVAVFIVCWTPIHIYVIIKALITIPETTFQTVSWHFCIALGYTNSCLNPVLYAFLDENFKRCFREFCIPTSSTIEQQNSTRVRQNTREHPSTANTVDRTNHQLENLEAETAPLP
T2 sequence (P41144 whole entry): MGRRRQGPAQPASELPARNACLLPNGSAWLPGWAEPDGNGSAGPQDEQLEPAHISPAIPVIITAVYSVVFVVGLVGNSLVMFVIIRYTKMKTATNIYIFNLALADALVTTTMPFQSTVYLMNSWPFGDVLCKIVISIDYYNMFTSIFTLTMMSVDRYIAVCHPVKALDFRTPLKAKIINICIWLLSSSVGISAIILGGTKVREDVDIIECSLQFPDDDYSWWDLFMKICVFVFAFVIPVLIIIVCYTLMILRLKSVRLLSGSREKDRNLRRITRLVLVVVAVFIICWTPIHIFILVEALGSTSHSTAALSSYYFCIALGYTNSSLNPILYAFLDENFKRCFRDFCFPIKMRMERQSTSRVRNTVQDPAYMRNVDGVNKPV

Row | Molecule | IC50 (5-HT uptake) | IC50 (μ receptor [1]) | IC50 (κ receptor) | IC50 (NE uptake; [3]) | IC50 (δ receptor) | IC50 (NE uptake) | other results
1 | COC1(c2cccc(O)c2)CCCCC1CN(C)C (racemic) [(R,R/S,S)-ODMOMT, (+/−)-cis-Desmethylmethyltramadol] | 2600 nM | 56 nM | 789 nM | 120 nM | 4920 nM |  | Affinity for the μ receptor compared with ODMT and racemic tramadol (μ receptor [2]): comparable to the corresponding enantiomer/racemate of ODMT, and much greater than that of racemic tramadol; Blocking NE uptake compared with racemic tramadol or (S,S)-ODMT (NE uptake): more effective at blocking NE uptake than racemic tramadol or (S,S)-ODMT
2 | CN(C)CC1CCCCC1(O)c1cccc(O)c1 (racemic) [(R,R/S,S)-ODMT, O-desmethyltramadol, reference compound] | 4000 nM |  | 3150 nM |  | 7710 nM |  | 
3 | COc1cccc(C2(OC)CCCCC2CN(C)C)c1 (racemic) [(R,R/S,S)-OMT, O-Methyltramadol] | 550 nM | 7870 nM |  |  |  | 29 nM | Blocking 5-HT uptake compared with racemic tramadol and ODMT (5-HT uptake): more effective at blocking at 5-HT uptake than racemic tramadol, (R,R)- or (S,S)-ODMT or racemic ODMT; Blocking NE uptake compared with racemic tramadol or (S,S)-ODMT (NE uptake): more effective at blocking NE uptake than racemic tramadol or (S,S)-ODMT
4 | COc1cccc(C2(O)CCCCC2CN(C)C)c1 (racemic) [(R,R/S,S)-Tramadol, reference compound] |  | 8270 nM and 7640 nM |  |  |  |  | 
5 | COc1cccc([C@@]2(OC)CCCC[C@H]2CN(C)C)c1.O=C(O)/C=C/C(=O)O (relative stereo) [(R,S/S,R)-OMT, (+/−)-trans-O-Methyltramadol Fumaric Acid] | 290 nM |  |  | 560 nM |  |  | Blocking 5-HT uptake compared with racemic tramadol and ODMT (5-HT uptake): more effective at blocking at 5-HT uptake than racemic tramadol, (R,R)- or (S,S)-ODMT or racemic ODMT; IC50 (DA uptake): 7600 nM; IC50 (μ receptor [2]; read-out: IC50, opioid binding, μ, rat cerebral cortex, [3H]DAMGO 1 nM, 60 minutes/22° C.): 3290 nM
6 | CN(C)CC1CCCCC1(O)c1cccc(O)c1 (single isomer, unassigned) [(R,R)-ODMT, O-desmethyltramadol, reference compound] | 3300 nM |  | 1610 nM |  | 4530 nM |  | 
7 | CN(C)CC1CCCCC1(O)c1cccc(O)c1 (single isomer, unassigned) [(S,S)-ODMT, HCl, reference compound] |  |  |  | 7100 nM |  |  | IC50 (5-HT uptake; HCl): 4400 nM
8 | COC1(c2cccc(O)c2)CCCCC1CN(C)C [(R,R)-ODMOMT, (1R,2R)-(+)-Desmethylmethyltramadol] | 2100 nM | 30 nM | 427 nM | 6800 nM | 2850 nM |  | Affinity for the μ receptor compared with ODMT and racemic tramadol (μ receptor [2]): comparable to the corresponding enantiomer/racemate of ODMT, and much greater than that of racemic tramadol
9 | COc1cccc(C2(OC)CCCCC2CN(C)C)c1 [(R,R)-OMT, (R,R)-(+)-O-Methyltramadol] | 650 nM | 7670 nM |  |  |  | 4000 nM | Blocking 5-HT uptake compared with racemic tramadol and ODMT (5-HT uptake): more effective at blocking at 5-HT uptake than racemic tramadol, (R,R)- or (S,S)-ODMT or racemic ODMT
10 | CO[C@@]1(c2cccc(O)c2)CCCC[C@H]1CN(C)C [(S,S)-ODMOMT, (1S,2S)-(−)-Desmethylmethyltramadol] | 5000 nM | 566 nM | 2440 nM | 51 nM |  |  | Affinity for the μ receptor compared with ODMT and racemic tramadol (μ receptor [2]): comparable to the corresponding enantiomer/racemate of ODMT, and much greater than that of racemic tramadol; Blocking NE uptake compared with racemic tramadol or (S,S)-ODMT (NE uptake): more effective at blocking NE uptake than racemic tramadol or (S,S)-ODMT
11 | CNCCCC1c2ccccc2C=Cc2ccccc21 [Protriptyline, reference compound] |  |  |  |  |  | 40 nM and 26 nM | 
12 | (+/−)-trans-O-Methyldidesmethyltramadol HCl [(R,S/S,R)-NDMOMT] | 16000 nM |  |  |  |  |  | 
13 | O-methyl tramadol [(S,S)-OMT] |  |  |  |  |  | 16000 nM | 
